Data reported in patent US20240150335A1, “FUSED RING DERIVATIVES CONTAINING 1,4-OXAZEPANE” (MEDSHINE DISCOVERY INC., priority 2021, published 2024).

Key:
[1] = Pharmacokinetic evaluation in CD-1 mice; format: in vivo; details: oral administration 10.0 mg/kg
Experimental: Experimental Example 3: Pharmacokinetic Evaluation of the Compound of the Present Disclosure in […]
Experimental purpose: To test the pharmacokinetics of the compound in CD-1 mice in vivo
Experimental materials: CD-1 mice (male, 20 to 40 g, 4 to 6 weeks old, Beijing Vital River)
The pharmacokinetic characteristics of the compound in rodents after intravenous injection and oral administration were tested according to the standard protocol. In the experiment, the candidate compound was formulated into clear solutions, and a single intravenous injection and oral administration were respectively given to two mice. The vehicle of intravenous injection and oral administration was 1:1:8 DMSO/Solutol/water. The whole blood samples within 24 hours were collected in commercial EDTA2K anticoagulant tubes. The tubes were centrifuged at 6000 g for 3 minutes. The supernatant was separated to obtain plasma samples. 20 times the volume of acetonitrile solution containing internal standard was added to precipitate protein. The mixture was centrifuged. The supernatant was take out. An equal volume of water was added. Then the mixture was centrifuged to take the supernatant as the sample for sampling. Plasma concentration was quantitatively analyzed by LC-MS/MS analysis method, and pharmacokinetic parameters were calculated, such as apparent volume of distribution, clearance rate, half-life, area under the drug-time curve.

DPP1 of U937 cells = DPP1 of U937 cells (Homo sapiens (Human), UniProt P53634); test: Activity test of inhibiting DPP1 in U937 cells; format: cell-based; details: Gly-Phe-AFC probe, read-out: IC50, inhibitory activity on DPP1 of U937 cells
Sequence of DPP1 of U937 cells (P53634 25-134): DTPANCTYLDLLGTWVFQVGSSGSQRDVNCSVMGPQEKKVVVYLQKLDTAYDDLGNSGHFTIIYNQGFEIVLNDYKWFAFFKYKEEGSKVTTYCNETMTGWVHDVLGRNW
Sequence of DPP1 of U937 cells (P53634 231-394): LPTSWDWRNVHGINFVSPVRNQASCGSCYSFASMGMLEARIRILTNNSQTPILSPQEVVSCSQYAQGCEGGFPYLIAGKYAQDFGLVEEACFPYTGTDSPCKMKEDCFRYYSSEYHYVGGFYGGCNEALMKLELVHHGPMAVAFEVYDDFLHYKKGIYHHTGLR
Sequence of DPP1 of U937 cells (P53634 395-463): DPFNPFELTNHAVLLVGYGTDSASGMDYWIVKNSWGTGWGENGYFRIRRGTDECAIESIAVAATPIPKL
Experimental: Experimental Example 2: Activity Test of Inhibiting DPP1 in U937 Cells
Experimental Materials: • 1) Experimental reagents and consumables
The cell plate was placed in a carbon dioxide incubator for 1 day; • (3) after incubation for 1 hour, 100 μM Gly-Phe-AFC probe solution was added thereto, that is, 60 mM Gly-Phe-AFC probe stock solution was diluted with culture medium to 500 μM working solution; the working solution in 10 μL per well was transferred into the cell plate, and the cell plate was incubated in a carbon dioxide incubator for 1 hour;
3) the plate was read, and the data were analyzed: • (1) plate reading: after the cell incubation was completed, the cell plate was taken out, and the plate was read on Victor Nivo.
Using the equation (Sample−Min)/(Max−Min)×100% to convert the raw data into inhibition rate, the IC50 value might be obtained by curve fitting with four parameters (obtained by “log (inhibitor) vs. response—Variable slope” mode in GraphPad Prism).

[2] = Rat tissue (bone marrow) distribution; format: in vivo; details: SD rats
Experimental: Experimental Example 6: Evaluation of Rat Tissue (Bone Marrow) Distribution of the Compound of the Present Disclosure
Experimental purpose: To test the distribution of the compound in the bone marrow and plasma of SD rats
Experimental materials: SD rats (male, 200 to 300 g, 6 to 10 weeks old, Beijing Vital River)
The content of the compound in the bone marrow and plasma of rats after oral administration was tested according to the standard protocol. In the experiment, the candidate compound was formulated into a clear solution. The vehicle was 5:95 DMSO and 10% hydroxypropyl β-cyclodextrin aqueous solution. A dose of 5 mg/kg was given to rats as a single oral administration. The whole blood samples and bone marrow samples were collected at 0.25, 0.5, 1, 2, 4, 6, and 24 hours, respectively. The whole blood samples were collected in commercial EDTA2K anticoagulant tubes. The tubes were centrifuged at 6000 g for 3 minutes. The supernatant was separated to obtain plasma samples. The acetonitrile solution containing internal standard was added to precipitate protein. The mixture was centrifuged. The supernatant was take out. An equal volume of water was added. After mixing well, plasma concentration was quantitatively analyzed by LC-MS/MS analysis method, and the area under the drug-time curve was calculated. The left femur of the rat was taken, and the muscle was removed. One end was cut off, placed in a centrifuge tube with the open end downwards. The tubes were centrifuged at 8000 rpm for 1 minute. The precipitate was bone marrow. The bone marrow was mixed with 50% methanol-water, grinded into a homogenate. The homogenate was added with an acetonitrile solution containing an internal standard to precipitate protein. The mixture was centrifuged to take the supernatant, added with an equal volume of water. After mixing well, the drug concentration in bone marrow was quantitatively analyzed by LC-MS/MS analysis method, and the area under the drug-time curve was calculated.
The calculation formula of bone marrow/plasma distribution coefficient is: Bone marrow/Plasma Ratio=bone marrow AUC0-last/plasma AUC0-last.

[3] = plasma, intravenous injection 2.0 mg/kg
[4] = bone marrow, 5 mg/kg single oral administration

Bioavailability F ([1]; intravenous injection 2.0 mg/kg): 79.6%
Clearance rate CL [1, 3]: 18.7 mL/min/kg
Volume of distribution at steady state Vdss [1, 3]: 8.3 L/kg
Cmax ([1]; plasma, intravenous injection 2.0 mg/kg, read-out: Peak concentration Cmax): 2310 nM
Area under drug-time curve AUC0-∞ PO ([1]; plasma): 17.008 µM·h
Half life T1/2 (PO) ([1]; plasma): 4.6 h
IC50 (DPP1 of U937 cells): 2.4 nM
Bone marrow/plasma distribution coefficient ([2]; 5 mg/kg oral, bone marrow AUC0-last/plasma AUC0-last): 7.0
Bone marrow Area under drug-time curve AUC0-last PO [2, 4]: 68856 nmol·h/kg
Bone marrow Peak concentration Cmax [2, 4]: 5014 nmol/kg
Plasma Area under drug-time curve AUC0-last PO ([2]; plasma, 5 mg/kg single oral administration): 9.902 µM·h
Cmax ([2]; plasma, 5 mg/kg single oral administration, read-out: Plasma Peak concentration Cmax): 1020 nM
Compound: Cn1ncc2ccc(-c3ccc(C[C@@H](C#N)NC(=O)[C@@H]4CNCCCO4)c(F)c3)cc21 [Compound 8]
